From the supplement of paper PMC10307832

How the values were obtained:
Test in all cases: relative viability (nuclei count vs DMSO), 5 days (fraction); higher = more cells survive
VX-11e + Linsitinib = compound: CC1=CN=C(N=C1C2=CNC(=C2)C(=O)N[C@H](CO)C3=CC(=CC=C3)Cl)NC4=C(C=C(C=C4)F)Cl [VX-11e] + C[C@]1(O)C[C@@H](c2nc(-c3ccc4ccc(-c5ccccc5)nc4c3)c3c(N)nccn32)C1 [Linsitinib] (partner 1 µM)
Method in brief: (§1)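 Relative viability equals treated-well nuclei counts divided by vehicle-well nuclei counts. Counts came from 4× images of lung cancer cell lines grown in 1536-well plates for 5 days after pin-tool dosing on the day after seeding. Dosing used one drug alone or a fixed anchor-drug dose plus five library-drug doses (not always all listed) in √10 steps, and values are medians of duplicate plates.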

VX-11e + Alpelisib = compound: CC1=CN=C(N=C1C2=CNC(=C2)C(=O)N[C@H](CO)C3=CC(=CC=C3)Cl)NC4=C(C=C(C=C4)F)Cl [VX-11e] + Cc1nc(NC(=O)N2CCC[C@H]2C(N)=O)sc1-c1ccnc(C(C)(C)C(F)(F)F)c1 [Alpelisib] (partner 2 µM)
Method in brief: as §1

VX-11e + Pictilisib = compound: CC1=CN=C(N=C1C2=CNC(=C2)C(=O)N[C@H](CO)C3=CC(=CC=C3)Cl)NC4=C(C=C(C=C4)F)Cl [VX-11e] + CS(=O)(=O)N1CCN(Cc2cc3nc(-c4cccc5[nH]ncc45)nc(N4CCOCC4)c3s2)CC1 [Pictilisib] (partner 1 µM)
Method in brief: as §1

VX-11e + Decitabine = compound: CC1=CN=C(N=C1C2=CNC(=C2)C(=O)N[C@H](CO)C3=CC(=CC=C3)Cl)NC4=C(C=C(C=C4)F)Cl [VX-11e] + Nc1ncn([C@H]2C[C@H](O)[C@@H](CO)O2)c(=O)n1 [Decitabine] (partner 2 µM)
Method in brief: as §1

| Cell Line | relative viability (VX-11e + Linsitinib; first compound 0.04 µM) | relative viability (VX-11e + Linsitinib; first compound 0.1265 µM) | relative viability (VX-11e + Linsitinib; first compound 0.4 µM) | relative viability (VX-11e + Linsitinib; first compound 1.265 µM) | relative viability (VX-11e + Linsitinib; first compound 4 µM) | relative viability (VX-11e + Alpelisib; first compound 0.1265 µM) | relative viability (VX-11e + Alpelisib; first compound 0.4 µM) | relative viability (VX-11e + Alpelisib; first compound 4 µM) | relative viability (VX-11e + Pictilisib; first compound 0.1265 µM) | relative viability (VX-11e + Pictilisib; first compound 0.4 µM) | relative viability (VX-11e + Pictilisib; first compound 4 µM) | relative viability (VX-11e + Decitabine; first compound 0.04 µM) | relative viability (VX-11e + Decitabine; first compound 0.1265 µM) | relative viability (VX-11e + Decitabine; first compound 0.4 µM) | relative viability (VX-11e + Decitabine; first compound 1.265 µM) | relative viability (VX-11e + Decitabine; first compound 4 µM) | relative viability (VX-11e + Alpelisib; first compound 0.04 µM) | relative viability (VX-11e + Alpelisib; first compound 1.265 µM) | relative viability (VX-11e + Pictilisib; first compound 0.04 µM) | relative viability (VX-11e + Pictilisib; first compound 1.265 µM) |
| --- | --- | --- | --- | --- | --- | --- | --- | --- | --- | --- | --- | --- | --- | --- | --- | --- | --- | --- | --- | --- |
| LK-2 | 0.774 | 0.672 | 0.555 | 0.205 | 0.313 | 1.06 | 1.21 | 0.543 | 0.45 | 0.562 | 0.337 | 0.179 | 0.33 | 0.177 | 0.208 | 0.207 | – | – | – | – |
| NCI-H1651 | 1.05 | 1.02 | 0.797 | 0.927 | 0.758 | 0.882 | 1 | 0.705 | 0.519 | 0.504 | 0.536 | 0.445 | 0.633 | 0.541 | 0.497 | 0.59 | 0.955 | 0.735 | 0.494 | 0.548 |
| LU99A | 0.539 | 0.456 | 0.623 | 0.42 | 0.207 | 0.38 | 0.574 | 0.175 | 0.283 | 0.385 | 0.155 | 0.872 | 0.81 | 0.822 | 0.727 | 0.347 | 0.423 | 0.209 | 0.285 | 0.278 |
| LC-2-ad | 0.831 | 0.852 | 0.787 | 0.572 | 0.508 | 0.867 | 0.778 | 0.585 | 0.432 | 0.349 | 0.163 | 0.798 | 0.776 | 0.703 | 0.872 | 0.654 | 0.913 | 0.714 | 0.398 | 0.247 |
| NCI-H1975 | 0.841 | 1.09 | 0.991 | 0.959 | 0.367 | 0.639 | 0.591 | 0.191 | 0.278 | 0.2 | 0.202 | 0.42 | 0.388 | 0.336 | 0.364 | 0.226 | 0.649 | 0.508 | 0.237 | 0.222 |
| NCI-H460 | 1.17 | 0.849 | 0.674 | 0.0925 | 0.017 | 0.359 | 0.39 | 0.0113 | 0.27 | 0.141 | 0.1 | 0.568 | 0.43 | 0.165 | 0.472 | 0.184 | 0.49 | 0.0408 | 0.306 | 0.173 |
| NCI-H1666 | 0.846 | 0.81 | 0.594 | 0.493 | 0.42 | 1.01 | 0.8 | 0.333 | 0.406 | 0.367 | 0.294 | 0.636 | 0.769 | 0.541 | 0.671 | 0.598 | 0.706 | 0.461 | 0.511 | 0.336 |
| EKVX | 1.01 | 0.971 | 1.05 | 0.87 | 0.559 | 0.869 | 0.984 | 0.335 | 0.545 | 0.461 | 0.19 | 0.331 | 0.397 | 0.298 | 0.394 | 0.232 | 0.953 | 0.752 | 0.447 | 0.404 |
